# Data: patent publication US20250171423A1, “PHARMACEUTICAL COMPOUNDS FOR THE TREATMENT OF COMPLEMENT MEDIATED DISORDERS” (Achillion Pharmaceuticals, Inc., priority 2020, published 2025)
# pIC50: −log10 of the molar value.
# Molecular target: T1, Human complement C1s enzyme (Homo sapiens, UniProt P09871)
# T1 construct: purified from human serum, Complement Technology, Inc; purchased Complement Technology, Inc; host or cells: human serum
# T1 sequence (P09871 438-688 limits assumed): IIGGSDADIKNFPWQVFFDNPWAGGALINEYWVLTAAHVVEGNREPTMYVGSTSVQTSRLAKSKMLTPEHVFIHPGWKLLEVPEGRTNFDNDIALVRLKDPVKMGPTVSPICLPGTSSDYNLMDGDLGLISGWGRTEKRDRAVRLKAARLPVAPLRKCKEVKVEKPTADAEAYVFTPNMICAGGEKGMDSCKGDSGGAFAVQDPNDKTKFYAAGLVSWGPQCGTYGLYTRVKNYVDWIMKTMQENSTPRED
# T1 sequence (P09871 16-437 partner limits assumed): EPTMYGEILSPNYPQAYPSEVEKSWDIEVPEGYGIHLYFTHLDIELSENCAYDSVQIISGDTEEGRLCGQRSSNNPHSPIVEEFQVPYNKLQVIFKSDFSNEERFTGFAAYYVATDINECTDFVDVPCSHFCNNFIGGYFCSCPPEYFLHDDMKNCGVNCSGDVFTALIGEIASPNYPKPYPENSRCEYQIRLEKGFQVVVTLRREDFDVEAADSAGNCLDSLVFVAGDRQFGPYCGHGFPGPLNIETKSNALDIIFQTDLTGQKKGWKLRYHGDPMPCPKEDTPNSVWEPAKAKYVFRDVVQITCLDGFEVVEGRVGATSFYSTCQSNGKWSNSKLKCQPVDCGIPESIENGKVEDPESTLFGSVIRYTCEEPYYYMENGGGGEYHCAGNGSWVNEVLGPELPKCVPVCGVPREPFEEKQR
# Experiment: Human C1s Enzyme Assay
# Format: biochemical
# Conditions: human C1s 1.16 nM, 5 min preincubation, substrate Z-L-Lys-SBzl 100 μM, A405; read-out: C1s Protease Activity
# How it was run: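 C1s purified from human serum (1.16 nM final) was preincubated with compound for 5 min at room temperature in 50 mM Tris, 1 M NaCl, pH 7.5. Z-L-Lys-SBzl and DTNB were then added at 100 μM each, and A405 was followed for 30 min. IC50 came from nonlinear regression of reaction rates.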
row,pIC50,SMILES
1,6.00 to 7.00,"C[C@@]12C[C@@H]1N(C(=O)CNC(=O)c1ccc(Oc3ccccc3)cc1)[C@H](C(=O)Nc1ccc3c(C(=N)N)csc3c1)C2 [Compound 237, (1S,3S,5S)-N-(3-carbamimidoylbenzo[b]thiophen-6-yl)-5-methyl-2-((4-phenoxybenzoyl)glycyl)-2-azabicyclo[3.1.0]hexane-3-carboxamide]"
2,> 7.00,"C[C@@]12C[C@@H]1N(C(=O)CNC(=O)CCOc1ccccc1)[C@H](C(=O)NCc1cc(C(=N)N)cs1)C2 [Compound 58, (1S,3S,5S)-N-((4-carbamimidoylthiophen-2-yl)methyl)-5-methyl-2-((3-phenoxy-propanoyl)glycyl)-2-azabicyclo[3.1.0]hexane-3-carboxamide]"
3,> 7.00,"N=C(N)c1csc(CNC(=O)[C@@H]2C[C@@H](Oc3ccccc3)CN2C(=O)CNC(=O)CCCOc2ccccc2)c1 [Compound 69, (2S,4R)-N-((4-carbamimidoylthiophen-2-yl)methyl)-4-phenoxy-1-((4-phenoxy-butanoyl)glycyl)pyrrolidine-2-carboxamide]"
4,< 6.00,"CNC(=O)C(NC(=O)[C@@H]1C[C@@H](OC(F)F)CN1C(=O)CNC(=O)c1ccc(Oc2ccccc2)cc1)c1cc(C(=N)N)cs1 (stereo partly drawn) [Compound 210, (2S,4R)-N-(1-(4-carbamimidoylthiophen-2-yl)-2-(methylamino)-2-oxoethyl)-4-(difluoromethoxy)-1-((4-phenoxybenzoyl)glycyl)pyrrolidine-2-carboxamide]"
5,> 7.00,"C[C@@]12C[C@@H]1N(C(=O)CNC(=O)c1ccc(Oc3ccccc3)cn1)[C@H](C(=O)NCc1cc(C(=N)N)cs1)C2 [Compound 93, (1S,3S,5S)-N-((4-carbamimidoylthiophen-2-yl)methyl)-5-methyl-2-((5-phenoxy-picolinoyl)glycyl)-2-azabicyclo[3.1.0]hexane-3-carboxamide]"
6,> 7.00,"N=C(N)c1csc([C@H](CO)NC(=O)[C@@H]2C[C@@H](OC(F)F)CN2C(=O)CNC(=O)c2ccc(Oc3ccccc3)cc2)c1 [Compound 198, (2S,4R)-N-((S)-1-(4-carbamimidoylthiophen-2-yl)-2-hydroxyethyl)-4-(difluoromethoxy)-1-((4-phenoxybenzoyl)glycyl)pyrrolidine-2-carboxamide]"
7,< 6.00,"C[C@@]12C[C@@H]1N(CCNC(=O)CCCOc1ccccc1)[C@H](C(=O)NCc1cc(C(=N)N)cs1)C2 [Compound 134, (1S,3S,5S)-N-((4-carbamimidoylthiophen-2-yl)methyl)-5-methyl-2-(2-(4-phenoxybutanamido)ethyl)-2-azabicyclo[3.1.0]hexane-3-carboxamide]"
8,< 6.00,"CCCCCCOC(=O)/N=C(\N)c1csc(CNC(=O)[C@@H]2C[C@]3(C)C[C@@H]3N2C(=O)CNC(=O)c2ccc(Oc3ccccc3)cc2)c1 [Compound 12, hexyl ((Z)-amino(5-(((1S,3S,5S)-5-methyl-2-((4-phenoxybenzoyl)glycyl)-2-azabicyclo-[3.1.0]hexane-3-carboxamido)methyl)thiophen-3-yl)methylene)carbamate]"
9,> 7.00,"N=C(N)c1csc(CNC(=O)[C@@H]2C[C@]3(CN4CCOCC4)C[C@@H]3N2C(=O)CNC(=O)CCCOc2ccccc2)c1 [Compound 135, (1S,3S,5S)-N-((4-carbamimidoylthiophen-2-yl)methyl)-5-(morpholinomethyl)-2-((4-phenoxybutanoyl)glycyl)-2-azabicyclo[3.1.0]hexane-3-carboxamide]"
10,< 6.00,"CN/C(=N/C#N)c1csc(CNC(=O)[C@@H]2C[C@]3(C)C[C@@H]3N2C(=O)CNC(=O)c2ccc(Oc3ccccc3)cc2)c1 [Compound 236, (1S,3S,5S)-N-((4-((E)-N′-cyano-N-methylcarbamimidoyl)thiophen-2-yl)methyl)-5-methyl-2-((4-phenoxybenzoyl)glycyl)-2-azabicyclo[3.1.0]hexane-3-carboxamide]"
11,> 7.00,"N=C(N)c1csc(CNC(=O)[C@@H]2[C@H](O)[C@@H](F)CN2C(=O)CNC(=O)CCCOc2ccccc2)c1 [Compound 128, (2S,3S,4S)-N-((4-carbamimidoylthiophen-2-yl)methyl)-4-fluoro-3-hydroxy-1-((4-phenoxybutanoyl)glycyl)pyrrolidine-2-carboxamide]"
12,> 7.00,"C[C@H](NC(=O)[C@@H]1C[C@]2(C)C[C@@H]2N1C(=O)CNC(=O)c1ccc(Oc2ccccc2)cc1)c1cc(C(=N)N)cs1 (single isomer, unassigned) [Compound 47, (1S,3S,5S)-N-((S*)-1-(4-carbamimidoylthiophen-2-yl)ethyl)-5-methyl-2-((4-phenoxy-benzoyl)glycyl)-2-azabicyclo[3.1.0]hexane-3-carboxamide]"
13,6.00 to 7.00,"C[C@@]12C[C@@H]1N(C(=O)CNC(=O)c1ccc(Oc3ccc(C(F)(F)F)cc3)cc1)[C@H](C(=O)NCc1cc(C(=N)N)cs1)C2 [Compound 92, (1S,3S,5S)-N-((4-carbamimidoylthiophen-2-yl)methyl)-5-methyl-2-((4-(4-(trifluoro-methyl)phenoxy)benzoyl)glycyl)-2-azabicyclo[3.1.0]hexane-3-carboxamide]"
14,< 6.00,"C[C@H](O)[C@H](O)[C@@H](O)[C@@H](O)CNCC(=O)N1[C@H]2C[C@@]2(C)C[C@H]1C(=O)NCc1nc(C(=N)N)cs1 [Compound 78, (1S,3S,5S)-N-((4-carbamimidoylthiazol-2-yl)methyl)-5-methyl-2-(((2S,3S,4S,5S)-2,3,4,5-tetrahydroxyhexyl)glycyl)-2-azabicyclo[3.1.0]hexane-3-carboxamide]"
15,> 7.00,"C[C@@]12C[C@@H]1N(C(=O)CNC(=O)c1ccc(Oc3ccccc3)cc1)[C@H](C(=O)NCc1cc(-c3ncc[nH]3)cs1)C2 [Compound 38, (1S,3S,5S)-N-((4-(1H-imidazol-2-yl)thiophen-2-yl)methyl)-5-methyl-2-((4-phenoxybenzoyl)glycyl)-2-azabicyclo[3.1.0]hexane-3-carboxamide]"
16,6.00 to 7.00,N=C(N)c1csc(CNC(=O)[C@@H]2C=CCN2C(=O)CNC(=O)CCCOc2ccc(S(F)(F)(F)(F)F)cc2)c1 [Compound 95]
17,> 7.00,"N=C(N)c1csc(CNC(=O)[C@@H]2C[C@H](C3CCCC3)CN2C(=O)CNC(=O)c2ccc(Oc3ccccc3)cc2)c1 [Compound 260, (2S,4R)-N-((4-carbamimidoylthiophen-2-yl)methyl)-4-cyclopentyl-1-((4-phenoxybenzoyl)glycyl) pyrrolidine-2-carboxamide]"
18,> 7.00,"N=C(N)c1csc(CNC(=O)[C@@H]2CC3(CN2C(=O)CNC(=O)CCCOc2ccc(F)cc2)OCCO3)c1 [Compound 65, (S)-N-((4-carbamimidoylthiophen-2-yl)methyl)-7-((4-(4-fluorophenoxy)butanoyl)glycyl)-1,4-dioxa-7-azaspiro[4.4]nonane-8-carboxamide]"
19,< 6.00,"COC[C@@H](NC(=O)[C@@H]1C[C@@H](OC(F)F)CN1C(=O)CNC(=O)c1ccc(Oc2ccccc2)cc1)c1cc(C(=N)N)cs1 [Compound 213, (2S,4R)-N-((R)-1-(4-carbamimidoylthiophen-2-yl)-2-methoxyethyl)-4-(difluoromethoxy)-1-((4-phenoxybenzoyl)glycyl)pyrrolidine-2-carboxamide]"
20,6.00 to 7.00,"CO[C@H]1[C@@H](C(=O)NCc2cc(C(=N)N)cs2)N(C(=O)CNC(=O)CCCOc2ccccc2)C[C@@H]1F [Compound 113, (2S,3S,4S)-N-((4-carbamimidoylthiophen-2-yl)methyl)-4-fluoro-3-methoxy-1-((4-phenoxybutanoyl)glycyl)pyrrolidine-2-carboxamide]"
21,< 6.00,"N=C(N)c1csc([C@@H](Cc2ccccc2)NC(=O)[C@@H]2CC3(CN2C(=O)CNC(=O)CCCOc2ccccc2)OCCO3)c1 [Compound 176, (S)-N-((R)-1-(4-carbamimidoylthiophen-2-yl)-2-phenylethyl)-7-((4-phenoxybutanoyl)glycyl)-1,4-dioxa-7-azaspiro[4.4]nonane-8-carboxamide]"

row,SMILES,pIC50
1,"C[C@@]12C[C@@H]1N(C(=O)CNC(=O)CCCOc1ccccc1C(=O)O)[C@H](C(=O)NCc1cc(C(=N)N)cs1)C2 [Compound 186, 2-(4-((2-((1S,3S,5S)-3-(((4-carbamimidoylthiophen-2-yl)methyl)carbamoyl)-5-methyl-2-azabicyclo[3.1.0]hexan-2-yl)-2-oxoethyl)amino)-4-oxobutoxy)benzoic acid]",> 7.00
2,"CC(=O)ONC(=N)c1csc(CNC(=O)[C@@H]2C[C@]3(C)C[C@@H]3N2C(=O)CNC(=O)c2ccc(Oc3ccccc3)cc2)c1 [Compound 39, (1S,3S,5S)-N-((4-(N-acetoxycarbamimidoyl)thiophen-2-yl)methyl)-5-methyl-2-((4-phenoxybenzoyl)glycyl)-2-azabicyclo[3.1.0]hexane-3-carboxamide]",6.00 to 7.00

# Same assay, conditions: read-out: C1s Protease Activity; human C1s 1.16 nM, 5 min preincubation, substrate Z-L-Lys-SBzl 100 μM, A405
row,SMILES,pIC50
1,"N=C(N)c1csc(CNC(=O)C23CCC(CC2)N3C(=O)CNC(=O)CCCOc2ccccc2)c1 [Compound 30, N-((4-carbamimidoylthiophen-2-yl)methyl)-7-((4-phenoxybutanoyl)glycyl)-7-azabicyclo[2.2.1]heptane-1-carboxamide]",> 7.00
